Patent US20220226357A1, “METHODS FOR TREATING NEURODEGENERATIVE DISORDERS” (THOMAS JEFFERSON UNIVERSITY, priority 2019, published 2022)
Entries after “also recorded” stand apart in the source; their conditions may differ.

Tests used:
Format in all cases: in vivo
[1] = system: AAV-A53T α-synuclein rat model; assay: Size of α-synuclein-positive aggregates in the striatum; conditions: for maximum aggregate size measured: striatum
Excerpt: Fixed tissue blocks were immersed in 30% sucrose for cryoprotection and sectioned frozen on a sliding microtome (30 μm section thickness for striatal sections; 40 μm section thickness for SN sections). Sections through the rostro-caudal extent of the SN were collected and every sixth section from the SN was processed for tyrosine hydroxylase (TH) immunohistochemistry to be used for stereological cell counting. Three striatal sections from approximately the level of the decussation of the anterior commissure in each case were processed for α-synuclein immunohistochemistry. For immunohistochemistry, sections were washed and permeabilized with PBS containing 0.2% Triton X-100. Endogenous peroxidase activity was quenched using 3% hydrogen peroxide in PBS containing 0.2% Triton X-100. Sections were then blocked in PBS/triton X-100 containing 10% normal goat serum and 2% BSA, followed by primary antibody incubation (TH (rabbit anti-TH, 1:2,000, Pel-Freez); α-synuclein (mouse anti-α-synuclein clone 211; 1:2000, Millipore) overnight at 4° C. The following day, sections were washed in PBS and incubated in biotinylated secondary antibody (goat-anti-rabbit 1:4000 for TH; goat-anti-mouse 1:2000 for α-synuclein 1:2000, VECTOR Laboratories), followed by additional washes and incubation in avidin biotin complex (VECTASTAIN Elite ABC system, VECTOR Laboratories). The reaction product was visualized with 3,3′-diaminobenzidine (DAB) (Immpact DAB, VECTOR Laboratories). Sections were then mounted, dehydrated, cleared and coverslipped. Sections stained for visualization of TH and to be used for stereological cell counting were counterstained with cresyl violet prior to coverslipping. […] Slides were coded and analyzed blindly. […] Cells were then counted at high power (100×) using a counting frame measuring 60 μm^2. […] This process was repeated for each section in the series for a given animal, and a total of 7-8 sections/animal were analyzed. Nissl-stained cells were counted concurrently in the same sections using the same sampling parameters. […]
Immunoblotting for α-synuclein expression was performed using the Wes western blot system (ProteinSimple). […] The sizes of α-synuclein-positive swelling/aggregates were measured in 3 fields (one medial, one central and one lateral) from 1 coronal section (at the approximate level of the decussation of the anterior commissure). Photographs were captured using a 40× objective on a Nikon Eclipse Ni microscope and α-synuclein-positive structures with an area >5 μm2 were considered as aggregates and were measured using Nikon MS Elements AR software. Data are presented as the distribution of aggregate sizes in the three striatal regions measured.

[2] = system: AAV-A53T α-synuclein rat model; assay: Beclin-1 protein expression in the SN; conditions: 2 wks after AAV-A53T vector injection; N=8/grp
Excerpt: The pathological phenotype of various storage disorders comprises increased α-Syn accumulation and aggregation and this increased α-Syn accumulation and aggregation has been linked to lysosomal dyfunction. Also, DA neuron degeneration induced by excess α-Syn in AAV-A53T rats is linked to a progressive decline in autophagic activity and in markers of lysosome function.

[3] = system: AAV-A53T α-synuclein rat model; assay: Cylinder test of spontaneous forelimb use
Method: Institutional Animal Care and Use Committee and conducted in accordance with the National Institutes of Health Guide for the Care and Use of Laboratory Animals. Adult male Sprague-Dawley rats (Envigo), 250 to 300 g at the time of surgery, were housed three per cage with ad libitum access to food and water during a 12-hour light/dark cycle. All surgeries were performed under general anesthesia using a mixture of ketamine (100 mg/kg, i.p.) and xylazine (10 mg/kg, i.p.). Once animals were anesthetized, the head was shaved and surgically prepped with Betadine solution and alcohol before being placed in a Kopf stereotaxic frame with the incisor bar set at approximately 3.5 mm below horizontal zero to achieve a flat skull position. The skin on the top of the skull was cut along the midline and retracted. […] Following a 5 minute wait period after completion of the injection, the needle was slowly withdrawn, the skin wound was closed, and post-surgery analgesia (meloxicam 1 mg/kg) was administered. Some rats were randomly assigned to receive daily GM1 ganglioside (porcine brain derived GM1, 30 mg/kg, i.p., Qilu Pharmaceutical Co., Ltd.) or similar volume saline injections beginning 24 hours after AAV-A53T-synuclein surgery and lasting for 6 weeks (early start group). Other animals were randomly assigned to receive daily GM1 ganglioside (porcine brain derived GM1, 30 mg/kg, i.p., Qilu Pharmaceutical Co.) or similar volume saline injections beginning 3 weeks after AAV-A53T-synuclein surgery and lasting for 5 weeks (delayed start group). […] At the conclusion of the study, animals were euthanized, fresh brains were rapidly removed, and two to three striatal samples from both sides were dissected and immediately frozen for later analyses. The remainder of the brain (including the striatum beginning at the level of the decussation of the anterior commissure) was submersion fixed in 4% paraformaldehyde.
Forelimb use during explorative activity was analyzed using the cylinder test. The test apparatus consisted of a clear Plexiglass cylinder of approximately 33 cm diameter and 50 cm height placed in a dimly lit room in front of a mirror in order to visualize limb use from all angles. Each session was videotaped for later analysis by an observer blind to the animal's experimental group. The paw contralateral to the side of the AAV-A53T-α-synuclein injection was marked prior to the start of each test session to definitively determine laterality on videotapes. The test was performed in the late afternoon prior to the onset of the dark cycle. At each test session, the animal was gently placed in the cylinder and movements were videotaped for 10 minutes. Forelimb use was assessed by scoring weight-bearing contacts on the cylinder wall with the ipsilateral, contralateral (relative to the AAV-A53T-α-synuclein-injected side), and both paws. Twenty observations of the paw placements on the cylinder wall were scored. Limb placement on the wall was scored only if it occurred after the animal returned to a resting position and reared again to touch the cylinder wall. Percent ipsilateral (ipsi) and contralateral (contra) paw touches were calculated as [(ipsi+1/2 both)/total #observations]*100 and [(contra+1/2 both)/total #observations]*100, respectively. The cylinder test was performed prior to surgery (baseline) and at 3 and 6 weeks after surgery for the immediate start GM1 groups and at 3 and 8 weeks after surgery for the delayed start GM1 groups.

[4] = delayed start GM1 (3 weeks after AAV-A53T)
[5] = early start GM1 (24 hours after AAV-A53T)

Substance: GM1 ganglioside
- size distribution of striatal α-synuclein-positive aggregates, GM1 vs saline [1, 4]: greater numbers of larger sized aggregates in the saline-treated group compared to the GM1 group
- maximum aggregate size measured [1, 4]: 29.3 μm^2
- size distribution of striatal α-synuclein-positive aggregates, GM1 vs saline [1, 5]: larger numbers of smaller sized aggregates and fewer larger sized aggregates
- maximum aggregate size measured [1, 5]: 28.8 μm^2
- SN Beclin-1 protein expression, GM1 vs saline [2]: reversed increased SN Beclin-1 levels; also recorded: significantly increased in saline-treated vs. GM1-treated animals
- percent ipsilateral forelimb use ([3]; delayed start GM1 30 mg/kg/day i.p. from week 3 for 5 weeks, week 8): 61.5±2.7%
- percent ipsilateral limb use ([3]; delayed start GM1 group, baseline (prior to surgery and GM1)): 50.0±2.0%
- percent ipsilateral forelimb use ([3]; delayed start GM1 group, week 3, just prior to receiving GM1): 74.9±2.8%
- percent ipsilateral limb use ([3]; early start GM1 30 mg/kg/day i.p. from 24 h after AAV-A53T, 3 weeks, mean±SEM): 67.1±3.7%
- percent ipsilateral limb use ([3]; early start GM1 30 mg/kg/day i.p. from 24 h after AAV-A53T, 6 weeks, mean±SEM): 56.0±2.5%
- percent ipsilateral limb use ([3]; early start GM1 group, baseline (prior to surgery and GM1), mean±SEM): 50.1±1.8%
